In PMC10682951, “Structure-function and rational design of a spider toxin Ssp1a at human voltage-gated sodium channel subtypes” (Frontiers in Pharmacology, 2023):
pIC50: −log10 of the molar value.

Key:
Type in all cases: cell-based
hNaV1.2 = molecular target: T1, hNaV1.2 (Homo sapiens, UniProt Q99250); assay: Automated whole-cell patch-clamp (QPatch 16X), hNaV1.2; conditions: for pIC50: HEK293 cells expressing hNaV1.2 + β1 subunit, QPatch 16X, holding −80 mV, step to 0 mV, peptide incubated 2 min, 0.1% BSA, mean, SEM and n (2-7)
T1 construct: host or cells: HEK293
Method in brief: (§1)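 HEK293 cells stably expressing the channel (human subtypes with β1 subunit), held at −80 mV; 2 min peptide pre-incubation, then 20 ms steps to 0 mV after a 200 ms −120 mV conditioning pulse. Extracellular pH 7.3 with 20 mM TEA-Cl, CsF-based pipette solution, 0.1% BSA; IC50 from four-parameter Hill fit.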

hNaV1.3 = molecular target: T2, hNaV1.3 (Homo sapiens, UniProt Q9NY46); assay: Automated whole-cell patch-clamp (QPatch 16X), hNaV1.3; conditions: HEK293 cells expressing hNaV1.3 + β1 subunit; QPatch 16X; holding −80 mV, step to 0 mV; peptide incubated 2 min; 0.1% BSA; mean, SEM and n (3-12)
T2 construct: host or cells: HEK293
Method in brief: as §1

hNaV1.7 = molecular target: T3, hNaV1.7 (Homo sapiens, UniProt Q15858); assay: Automated whole-cell patch-clamp (QPatch 16X), hNaV1.7; conditions: HEK293 cells expressing hNaV1.7 + β1 subunit; QPatch 16X; holding −80 mV, step to 0 mV; peptide incubated 2 min; 0.1% BSA; mean, SEM and n (3-9)
T3 construct: host or cells: HEK293
Method in brief: as §1

T3 sequence (Q15858 whole entry): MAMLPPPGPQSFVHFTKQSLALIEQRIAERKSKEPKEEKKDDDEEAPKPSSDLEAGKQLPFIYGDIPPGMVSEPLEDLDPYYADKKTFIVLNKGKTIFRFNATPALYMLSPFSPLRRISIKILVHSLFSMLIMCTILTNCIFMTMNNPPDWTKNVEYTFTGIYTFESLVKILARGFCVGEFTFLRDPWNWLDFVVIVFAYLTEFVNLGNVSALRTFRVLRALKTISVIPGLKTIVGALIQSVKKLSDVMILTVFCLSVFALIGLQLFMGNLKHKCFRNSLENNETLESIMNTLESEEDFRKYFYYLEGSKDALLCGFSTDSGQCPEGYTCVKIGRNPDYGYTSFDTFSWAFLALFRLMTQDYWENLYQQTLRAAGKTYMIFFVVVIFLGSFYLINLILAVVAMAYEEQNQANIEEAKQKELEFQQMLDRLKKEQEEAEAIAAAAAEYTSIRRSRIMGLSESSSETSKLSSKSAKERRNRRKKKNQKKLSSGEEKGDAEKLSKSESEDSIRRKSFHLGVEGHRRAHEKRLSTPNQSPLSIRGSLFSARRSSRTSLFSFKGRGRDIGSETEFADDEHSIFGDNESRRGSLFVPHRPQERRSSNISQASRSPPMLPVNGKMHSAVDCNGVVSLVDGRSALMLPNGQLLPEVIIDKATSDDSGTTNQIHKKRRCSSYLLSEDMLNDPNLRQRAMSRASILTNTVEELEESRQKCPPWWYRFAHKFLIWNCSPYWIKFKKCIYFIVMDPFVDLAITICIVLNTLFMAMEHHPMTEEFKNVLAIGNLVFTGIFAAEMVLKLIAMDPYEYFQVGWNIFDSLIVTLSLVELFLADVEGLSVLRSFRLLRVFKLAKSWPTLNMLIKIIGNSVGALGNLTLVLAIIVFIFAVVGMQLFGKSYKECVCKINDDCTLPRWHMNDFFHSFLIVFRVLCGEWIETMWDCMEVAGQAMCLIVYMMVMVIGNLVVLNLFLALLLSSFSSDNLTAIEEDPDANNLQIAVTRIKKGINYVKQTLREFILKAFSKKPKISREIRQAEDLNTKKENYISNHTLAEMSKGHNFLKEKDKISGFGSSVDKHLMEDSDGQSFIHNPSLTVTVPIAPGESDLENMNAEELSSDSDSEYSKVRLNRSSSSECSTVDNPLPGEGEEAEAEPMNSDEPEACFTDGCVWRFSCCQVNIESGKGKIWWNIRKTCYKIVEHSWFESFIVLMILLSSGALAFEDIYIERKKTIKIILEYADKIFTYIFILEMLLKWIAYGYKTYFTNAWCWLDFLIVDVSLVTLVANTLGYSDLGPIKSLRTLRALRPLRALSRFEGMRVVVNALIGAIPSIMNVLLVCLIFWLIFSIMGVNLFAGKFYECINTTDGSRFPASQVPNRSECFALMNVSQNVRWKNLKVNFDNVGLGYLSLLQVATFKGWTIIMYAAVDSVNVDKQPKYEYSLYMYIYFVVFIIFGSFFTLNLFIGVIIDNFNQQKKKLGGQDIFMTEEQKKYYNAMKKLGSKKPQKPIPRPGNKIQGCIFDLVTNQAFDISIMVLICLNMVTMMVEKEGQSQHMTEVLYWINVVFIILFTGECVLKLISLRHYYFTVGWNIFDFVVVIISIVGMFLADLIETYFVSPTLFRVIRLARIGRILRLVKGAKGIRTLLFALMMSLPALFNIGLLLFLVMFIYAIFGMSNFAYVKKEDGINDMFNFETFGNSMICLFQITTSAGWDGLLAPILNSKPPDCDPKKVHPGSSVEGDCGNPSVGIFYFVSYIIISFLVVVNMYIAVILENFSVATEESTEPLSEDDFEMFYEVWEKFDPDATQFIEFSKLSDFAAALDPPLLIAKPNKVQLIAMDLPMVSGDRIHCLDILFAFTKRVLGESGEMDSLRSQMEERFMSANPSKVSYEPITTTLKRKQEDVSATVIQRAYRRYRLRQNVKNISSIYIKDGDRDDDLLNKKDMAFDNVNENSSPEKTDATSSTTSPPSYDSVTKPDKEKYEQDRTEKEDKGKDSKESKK
T3 sequence (Q07699 19-218, further chain): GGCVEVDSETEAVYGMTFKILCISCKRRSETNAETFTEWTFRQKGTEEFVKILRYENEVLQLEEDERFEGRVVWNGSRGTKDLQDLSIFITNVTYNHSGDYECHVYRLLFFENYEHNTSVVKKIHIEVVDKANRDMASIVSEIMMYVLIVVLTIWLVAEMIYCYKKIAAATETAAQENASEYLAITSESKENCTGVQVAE
T1 sequence (Q07699 19-218): as the sequence (Q07699 19-218, further chain) above
T1 sequence (Q99250 whole entry): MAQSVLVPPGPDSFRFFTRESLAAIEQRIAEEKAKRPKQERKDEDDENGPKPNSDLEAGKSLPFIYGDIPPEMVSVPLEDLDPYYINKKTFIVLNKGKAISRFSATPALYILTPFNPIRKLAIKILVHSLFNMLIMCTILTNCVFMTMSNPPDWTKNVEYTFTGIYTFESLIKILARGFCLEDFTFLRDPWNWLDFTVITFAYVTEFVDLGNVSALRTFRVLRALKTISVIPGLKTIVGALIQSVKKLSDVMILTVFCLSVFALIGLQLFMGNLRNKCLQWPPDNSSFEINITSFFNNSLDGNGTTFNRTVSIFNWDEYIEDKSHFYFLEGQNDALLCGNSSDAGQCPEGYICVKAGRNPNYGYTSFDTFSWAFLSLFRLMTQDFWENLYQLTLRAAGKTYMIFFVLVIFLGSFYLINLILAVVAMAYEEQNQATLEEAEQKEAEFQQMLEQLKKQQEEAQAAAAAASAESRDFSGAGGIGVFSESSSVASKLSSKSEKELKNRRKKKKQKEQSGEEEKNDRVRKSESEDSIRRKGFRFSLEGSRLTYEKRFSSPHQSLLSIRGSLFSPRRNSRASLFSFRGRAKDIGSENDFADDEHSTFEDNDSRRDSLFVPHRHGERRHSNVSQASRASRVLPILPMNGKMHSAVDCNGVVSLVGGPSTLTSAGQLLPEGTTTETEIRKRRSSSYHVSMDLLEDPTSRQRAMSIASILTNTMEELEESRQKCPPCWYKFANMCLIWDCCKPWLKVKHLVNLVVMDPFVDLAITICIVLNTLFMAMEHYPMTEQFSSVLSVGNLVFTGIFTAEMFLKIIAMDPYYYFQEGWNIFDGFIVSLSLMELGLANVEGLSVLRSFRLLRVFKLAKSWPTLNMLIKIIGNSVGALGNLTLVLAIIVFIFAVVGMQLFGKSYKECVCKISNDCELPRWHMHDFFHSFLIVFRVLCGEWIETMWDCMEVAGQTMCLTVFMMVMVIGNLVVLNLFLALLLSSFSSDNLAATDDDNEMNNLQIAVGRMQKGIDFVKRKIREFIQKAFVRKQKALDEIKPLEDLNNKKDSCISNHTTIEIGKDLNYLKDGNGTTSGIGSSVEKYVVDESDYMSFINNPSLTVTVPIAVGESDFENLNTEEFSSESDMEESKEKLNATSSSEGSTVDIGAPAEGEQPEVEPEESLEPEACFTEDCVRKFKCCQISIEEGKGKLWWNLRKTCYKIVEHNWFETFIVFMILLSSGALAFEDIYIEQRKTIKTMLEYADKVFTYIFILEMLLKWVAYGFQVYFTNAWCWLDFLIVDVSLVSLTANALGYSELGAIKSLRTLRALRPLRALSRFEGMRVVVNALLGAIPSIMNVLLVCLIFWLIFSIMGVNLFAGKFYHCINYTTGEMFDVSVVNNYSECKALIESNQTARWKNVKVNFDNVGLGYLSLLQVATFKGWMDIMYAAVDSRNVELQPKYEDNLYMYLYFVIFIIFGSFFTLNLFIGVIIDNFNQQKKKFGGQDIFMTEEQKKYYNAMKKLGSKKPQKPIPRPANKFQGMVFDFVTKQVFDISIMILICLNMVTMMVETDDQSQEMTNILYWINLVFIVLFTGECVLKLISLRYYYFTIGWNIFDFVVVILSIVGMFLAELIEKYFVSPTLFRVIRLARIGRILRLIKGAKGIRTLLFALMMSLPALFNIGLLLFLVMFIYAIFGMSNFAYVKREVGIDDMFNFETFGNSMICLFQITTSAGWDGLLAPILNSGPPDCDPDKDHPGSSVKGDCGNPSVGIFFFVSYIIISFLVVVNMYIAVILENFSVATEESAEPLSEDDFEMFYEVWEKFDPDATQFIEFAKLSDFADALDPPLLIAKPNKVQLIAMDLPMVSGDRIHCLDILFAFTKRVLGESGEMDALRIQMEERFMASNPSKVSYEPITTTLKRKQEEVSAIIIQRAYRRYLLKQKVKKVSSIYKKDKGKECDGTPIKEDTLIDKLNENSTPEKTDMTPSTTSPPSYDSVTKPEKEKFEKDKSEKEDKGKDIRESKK

SMILES | pIC50 (hNaV1.2) | hNaV1.2-selectivity against hNaV1.3 (hNaV1.2; ratio of potencies hNaV1.3 / hNaV1.2) [fold] | hNaV1.2-selectivity against hNaV1.7 (hNaV1.2; ratio of potencies hNaV1.7 / hNaV1.2) [fold] | pIC50 (hNaV1.3) | pIC50 (hNaV1.7)
CC(C)C[C@H](NC(=O)[C@H](CC(=O)O)NC(=O)[C@H](Cc1ccc(O)cc1)NC(=O)[C@H](CCCNC(=N)N)NC(=O)[C@@H]1CSSC[C@@H]2NC(=O)[C@H](CCCCN)NC(=O)[C@H](CC(=O)O)NC(=O)[C@H](CC(N)=O)NC(=O)[C@H](CC(N)=O)NC(=O)[C@@H]3CCCN3C(=O)[C@H](CC(=O)O)NC(=O)[C@@H]3CSSC[C@H](NC(=O)[C@H](C(C)C)NC(=O)[C@H](Cc4ccc(O)cc4)NC(=O)CNC(=O)[C@H](CCC(=O)O)NC(=O)[C@H](CSSC[C@H](NC(=O)[C@H](CC(=O)O)NC(=O)CN)C(=O)N[C@@H](CC(C)C)C(=O)NCC(=O)N[C@@H](Cc4c[nH]c5ccccc45)C(=O)N[C@@H](Cc4ccccc4)C(=O)N[C@@H](CO)C(=O)NCC(=O)N3)NC2=O)C(=O)N[C@@H](Cc2c[nH]cn2)C(=O)N[C@@H](Cc2c[nH]c3ccccc23)C(=O)N[C@@H](CCCCN)C(=O)N[C@@H](Cc2ccc(O)cc2)C(=O)N2CCC[C@H]2C(=O)N[C@@H](Cc2c[nH]c3ccccc23)C(=O)N1)C(=O)O [N14D] | 6.90 | 7 | > 24 | 6.05 | < 5.52
CC(C)C[C@H](NC(=O)[C@H](CC(=O)O)NC(=O)[C@H](Cc1ccc(O)cc1)NC(=O)[C@H](CCCNC(=N)N)NC(=O)[C@@H]1CSSC[C@@H]2NC(=O)[C@H](CCCCN)NC(=O)[C@H](CC(N)=O)NC(=O)[C@H](CC(N)=O)NC(=O)[C@H](CC(N)=O)NC(=O)[C@@H]3CCCN3C(=O)[C@H](CC(=O)O)NC(=O)[C@@H]3CSSC[C@H](NC(=O)[C@H](C(C)C)NC(=O)[C@H](Cc4ccc(O)cc4)NC(=O)CNC(=O)[C@H](Cc4ccc(O)cc4)NC(=O)[C@H](CSSC[C@H](NC(=O)[C@H](CC(=O)O)NC(=O)CN)C(=O)N[C@@H](CC(C)C)C(=O)NCC(=O)N[C@@H](Cc4c[nH]c5ccccc45)C(=O)N[C@@H](Cc4ccccc4)C(=O)N[C@@H](CO)C(=O)NCC(=O)N3)NC2=O)C(=O)N[C@@H](Cc2c[nH]cn2)C(=O)N[C@@H](Cc2c[nH]c3ccccc23)C(=O)N[C@@H](CCCCN)C(=O)N[C@@H](Cc2ccc(O)cc2)C(=O)N2CCC[C@H]2C(=O)N[C@@H](Cc2c[nH]c3ccccc23)C(=O)N1)C(=O)O [E18Y] | 6.69 |  |  | 6.52 | 6.75
CC(C)C[C@H](NC(=O)[C@H](CC(=O)O)NC(=O)[C@H](Cc1ccc(O)cc1)NC(=O)[C@H](CCCNC(=N)N)NC(=O)[C@@H]1CSSC[C@@H]2NC(=O)[C@H](CCCCN)NC(=O)[C@H](CC(N)=O)NC(=O)[C@H](CC(N)=O)NC(=O)[C@H](CC(N)=O)NC(=O)[C@@H]3CCCN3C(=O)[C@H](CC(=O)O)NC(=O)[C@@H]3CSSC[C@H](NC(=O)[C@H](C(C)C)NC(=O)[C@H](Cc4ccc(O)cc4)NC(=O)CNC(=O)[C@H](CCC(=O)O)NC(=O)[C@H](CSSC[C@H](NC(=O)[C@H](CC(=O)O)NC(=O)CN)C(=O)N[C@@H](C)C(=O)NCC(=O)N[C@@H](Cc4c[nH]c5ccccc45)C(=O)N[C@@H](Cc4ccccc4)C(=O)N[C@@H](CO)C(=O)NCC(=O)N3)NC2=O)C(=O)N[C@@H](Cc2c[nH]cn2)C(=O)N[C@@H](Cc2c[nH]c3ccccc23)C(=O)N[C@@H](CCCCN)C(=O)N[C@@H](Cc2ccc(O)cc2)C(=O)N2CCC[C@H]2C(=O)N[C@@H](Cc2c[nH]c3ccccc23)C(=O)N1)C(=O)O [L3A] | 6.81 |  |  | 6.51 | 6.77
